Key:
[1] = test system: subjects undergoing cataract extraction with lens replacement (CELR); assay: Phase 2: subjects completing the surgery (and without interruption); type: in vivo, human; details: Visit 2 (Day 1); full analysis set
Experimental: (§1) The number of subjects achieving analgesia response (observed) in the full analysis set was determined. Success in analgesia response was defined as NPRS<4 at the available at the available four intraoperative timepoints and a failure otherwise (e.g., any interoperative pain rescue was assumed to be a failure. Results are provided in TABLE 25. The number of subjects completing the surgery is provided in TABLE 26, and the number of subjects completing the surgery without interruption is provided in TABLE 27. For this measure, subjects completing the surgery without interruption (other than rescue medication) due to pain or anxiety were considered successes. The number of subjects requiring rescue sedative medication and those requiring analgesic medication are provided in TABLES 28 and 29, respectively. For all TABLES 25-29, p-Values between pairs of treatments were calculated and are provided.

[2] = test system: subjects undergoing cataract extraction with lens replacement (CELR); assay: Phase 2: subjects requiring rescue sedative medication; type: in vivo, human; details: Visit 2 (Day 1); full analysis set
Experimental: as §1

[3] = test system: subjects undergoing cataract extraction with lens replacement (CELR); assay: Phase 2: subjects requiring rescue analgesic medication; type: in vivo, human; details: Visit 2 (Day 1); full analysis set
Experimental: as §1

[4] = test system: subjects undergoing cataract extraction with lens replacement (CELR); assay: Phase 2: subjects wanting study drug again for a second surgery (11-point Likert scale); type: in vivo, human; details: for Want Study Drug Again, Mean / Want Study Drug Again, Median: 11-point Likert scale of 0 (not likely at all) to 10 (extremely likely), full analysis set
From the text: Post-operation, subjects were asked whether they would want the study drug again for a second surgery using an 11-point Likert scale of 0 (not likely at all) to 10 (extremely likely).

[5] = test system: subjects undergoing cataract extraction with lens replacement (CELR); assay: Phase 2: mean intraoperative analgesia by the numeric pain rating scale; details: for Intraoperative Numeric Pain Rating Scale, Mean / Intraoperative Numeric Pain Rating Scale, Median: full analysis set
Experimental: Mean intraoperative analgesia by the numeric pain rating scale (Min=0; Max=9) was assayed for each subject in the full analysis set at intraoperative timepoints: insertion of the speculum; corneal incision; insertion of phacoemulsion probe; insertion of the synthetic replacement lens. An average of the available timepoints was also calculated.

[6] = 11-point Likert scale, unpaired t-test
[7] = Average of Available Timepoints, adjusted for site (carry forward)
[8] = Average of Available Timepoints, adjusted for site (carry forward), repeated measures model with covariates for study center
[9] = Average of Available Timepoints, carry forward
[10] = Average of Available Timepoints, carry forward, repeated measures model
[11] = Average of Available Timepoints, observed
[12] = Average of Available Timepoints, observed, repeated measures model
[13] = Corneal incision, adjusted for site (carry forward)
[14] = Corneal incision, carry forward
[15] = Insertion of the phacoemulsion probe, adjusted for site (carry forward)
[16] = Insertion of the phacoemulsion probe, carry forward
[17] = Insertion of the phacoemulsion probe, observed
[18] = Insertion of the speculum, adjusted for site (carry forward)
[19] = Insertion of the speculum, carry forward
[20] = Insertion of the speculum, observed
[21] = Insertion of the synthetic replacement lens, adjusted for site (carry forward)
[22] = Insertion of the synthetic replacement lens, carry forward
[23] = Insertion of the synthetic replacement lens, observed
[24] = adjusted for site (carry forward), repeated measures model with covariates for study center
[25] = carry forward, repeated measures model
[26] = observed, repeated measures model

Structure (SMILES): CNC1(c2ccccc2Cl)CCCCC1=O (centres unmarked) [Ketamine 50 mg]
- Subjects Completing the Surgery without Interruption, No, % [1]: (6.3) %
- Subjects Completing the Surgery without Interruption, Yes, % [1]: (93.7) %
- Subjects Requiring Rescue Sedative Medication, Intraoperatively, % [2]: (6.3) %
- Subjects Requiring Rescue Sedative Medication, No, % [2]: (63.3) %
- Subjects Requiring Rescue Sedative Medication, Pre-operatively, % [2]: (30.4) %
- Subjects Requiring Rescue Sedative Medication, Yes, % [2]: (36.7) %
- Subjects Requiring Rescue Analgesic Medication, No, % [3]: (59.5) %
- Subjects Requiring Rescue Analgesic Medication, Yes, % [3]: (40.5) %
- Want Study Drug Again, Mean [4]: 7.6
- Want Study Drug Again, Median [4]: 10.0
- Want Study Drug Again, Mean Difference Versus Placebo [4, 6]: −0.05
- Intraoperative Numeric Pain Rating Scale, Mean [5, 7]: 2.16
- Intraoperative Numeric Pain Rating Scale, Median [5, 7]: 1.75
- Intraoperative Numeric Pain Rating Scale, LS Mean [5, 8]: 1.89
- Intraoperative Numeric Pain Rating Scale, Mean [5, 9]: 2.16
- Intraoperative Numeric Pain Rating Scale, Median [5, 9]: 1.75
- Intraoperative Numeric Pain Rating Scale, LS Mean [5, 10]: 2.16
- Intraoperative Numeric Pain Rating Scale, Mean [5, 11]: 2.00
- Intraoperative Numeric Pain Rating Scale, Median [5, 11]: 1.75
- Intraoperative Numeric Pain Rating Scale, LS Mean [5, 12]: 2.22
- Intraoperative Numeric Pain Rating Scale, Mean [5, 13]: 1.8
- Intraoperative Numeric Pain Rating Scale, Median [5, 13]: 1.0
- Intraoperative Numeric Pain Rating Scale, Mean [5, 14]: 1.8
- Intraoperative Numeric Pain Rating Scale, Median [5, 14]: 1.0
- Intraoperative Numeric Pain Rating Scale, Mean ([5]; Corneal incision, observed): 1.7
- Intraoperative Numeric Pain Rating Scale, Median ([5]; Corneal incision, observed): 1.0
- Intraoperative Numeric Pain Rating Scale, Mean [5, 15]: 2.5
- Intraoperative Numeric Pain Rating Scale, Median [5, 15]: 2.0
- Intraoperative Numeric Pain Rating Scale, Mean [5, 16]: 2.5
- Intraoperative Numeric Pain Rating Scale, Median [5, 16]: 2.0
- Intraoperative Numeric Pain Rating Scale, Mean [5, 17]: 2.1
- Intraoperative Numeric Pain Rating Scale, Median [5, 17]: 2.0
- Intraoperative Numeric Pain Rating Scale, Mean [5, 18]: 1.3.
- Intraoperative Numeric Pain Rating Scale, Median [5, 18]: 1.0
- Intraoperative Numeric Pain Rating Scale, Mean [5, 19]: 1.1
- Intraoperative Numeric Pain Rating Scale, Median [5, 19]: 1.0
- Intraoperative Numeric Pain Rating Scale, Mean [5, 20]: 1.1
- Intraoperative Numeric Pain Rating Scale, Median [5, 20]: 1.0
- Intraoperative Numeric Pain Rating Scale, Mean [5, 21]: 3.3
- Intraoperative Numeric Pain Rating Scale, Median [5, 21]: 3.0
- Intraoperative Numeric Pain Rating Scale, Mean [5, 22]: 3.3
- Intraoperative Numeric Pain Rating Scale, Median [5, 22]: 3.0
- Intraoperative Numeric Pain Rating Scale, Mean [5, 23]: 2.5
- Intraoperative Numeric Pain Rating Scale, Median [5, 23]: 2.0
- Numeric Pain Rating Scale, LS Mean Difference Versus Placebo [5, 24]: −0.30
- Numeric Pain Rating Scale, LS Mean Difference Versus Placebo [5, 25]: −0.32
- Numeric Pain Rating Scale, LS Mean Difference Versus Placebo [5, 26]: −0.26

Structure (SMILES): Cc1ncc2n1-c1ccc(Cl)cc1C(c1ccccc1F)=NC2 [Midazolam 3 mg]
- Subjects Completing the Surgery without Interruption, No, % [1]: (0) %
- Subjects Completing the Surgery without Interruption, Yes, % [1]: (100.0) %
- Subjects Requiring Rescue Sedative Medication, Intraoperatively, % [2]: (8.6) %
- Subjects Requiring Rescue Sedative Medication, No, % [2]: (65.4) %
- Subjects Requiring Rescue Sedative Medication, Pre-operatively, % [2]: (25.9) %
- Subjects Requiring Rescue Sedative Medication, Yes, % [2]: (34.6) %
- Subjects Requiring Rescue Analgesic Medication, No, % [3]: (56.8) %
- Subjects Requiring Rescue Analgesic Medication, Yes, % [3]: (43.2) %
- Want Study Drug Again, Mean [4]: 8.4
- Want Study Drug Again, Median [4]: 10.0
- Want Study Drug Again, Mean Difference Versus Ketamine [4, 6]: 0.80
- Want Study Drug Again, Mean Difference Versus Placebo [4, 6]: 0.75
- Intraoperative Numeric Pain Rating Scale, Mean [5, 7]: 2.37
- Intraoperative Numeric Pain Rating Scale, Median [5, 7]: 2.00
- Intraoperative Numeric Pain Rating Scale, LS Mean [5, 8]: 2.12
- Intraoperative Numeric Pain Rating Scale, Mean [5, 9]: 2.37
- Intraoperative Numeric Pain Rating Scale, Median [5, 9]: 2.00
- Intraoperative Numeric Pain Rating Scale, LS Mean [5, 10]: 2.37
- Intraoperative Numeric Pain Rating Scale, Mean [5, 11]: 2.18
- Intraoperative Numeric Pain Rating Scale, Median [5, 11]: 2.00
- Intraoperative Numeric Pain Rating Scale, LS Mean [5, 12]: 2.46
- Intraoperative Numeric Pain Rating Scale, Mean [5, 13]: 1.8
- Intraoperative Numeric Pain Rating Scale, Median [5, 13]: 1.0
- Intraoperative Numeric Pain Rating Scale, Mean [5, 14]: 1.8
- Intraoperative Numeric Pain Rating Scale, Median [5, 14]: 1.0
- Intraoperative Numeric Pain Rating Scale, Mean ([5]; Corneal incision, observed): 1.8
- Intraoperative Numeric Pain Rating Scale, Median ([5]; Corneal incision, observed): 1.0
- Intraoperative Numeric Pain Rating Scale, Mean [5, 15]: 2.9
- Intraoperative Numeric Pain Rating Scale, Median [5, 15]: 3.0
- Intraoperative Numeric Pain Rating Scale, Mean [5, 16]: 2.9
- Intraoperative Numeric Pain Rating Scale, Median [5, 16]: 3.0
- Intraoperative Numeric Pain Rating Scale, Mean [5, 17]: 2.5
- Intraoperative Numeric Pain Rating Scale, Median [5, 17]: 2.0
- Intraoperative Numeric Pain Rating Scale, Mean [5, 18]: 1.1
- Intraoperative Numeric Pain Rating Scale, Median [5, 18]: 0.0
- Intraoperative Numeric Pain Rating Scale, Mean [5, 19]: 1.1
- Intraoperative Numeric Pain Rating Scale, Median [5, 19]: 0.0
- Intraoperative Numeric Pain Rating Scale, Mean [5, 20]: 1.1
- Intraoperative Numeric Pain Rating Scale, Median [5, 20]: 0.0
- Intraoperative Numeric Pain Rating Scale, Mean [5, 21]: 3.6
- Intraoperative Numeric Pain Rating Scale, Median [5, 21]: 4.0
- Intraoperative Numeric Pain Rating Scale, Mean [5, 22]: 3.6
- Intraoperative Numeric Pain Rating Scale, Median [5, 22]: 4.0
- Intraoperative Numeric Pain Rating Scale, Mean [5, 23]: 2.9
- Intraoperative Numeric Pain Rating Scale, Median [5, 23]: 3.0
- Numeric Pain Rating Scale, LS Mean Difference Versus Ketamine [5, 24]: 0.22
- Numeric Pain Rating Scale, LS Mean Difference Versus Placebo [5, 24]: −0.08
- Numeric Pain Rating Scale, LS Mean Difference Versus Ketamine [5, 25]: 0.20
- Numeric Pain Rating Scale, LS Mean Difference Versus Placebo [5, 25]: −0.12
- Numeric Pain Rating Scale, LS Mean Difference Versus Ketamine [5, 26]: 0.24
- Numeric Pain Rating Scale, LS Mean Difference Versus Placebo [5, 26]: −0.01
